Assay [1] has as its system BiP. Description: ATP binding assay ([32P]ATP, nitrocellulose filtration). More on the design: species or system porcine. To be noted: 50 μM [32P]ATP, 1 h on ice. As to the method: (§1) ATP Binding Assay. Six μg of GRP94, BiP, and Hsp90 was incubated with 50 μM […] (1000 μCi/μmol) (Amersham Pharmacia Biotech of Piscataway, N.J.) in buffer B on ice for 1 hour. Nitrocellulose filters (BA85) (Schleicher & Schuell of Keene, N.H.) were individually wet in buffer B before use, and bound versus free [^32P]-ATP was separated by vacuum filtration. Filters were washed with 3×2 mL of ice cold buffer B, placed in 5 mL of scintillation fluid, vortexed, and counted.

The target of assay [2] is T1, GRP94 (Sus scrofa, UniProt Q29092).
T1 construct: GRP94 was purified from porcine pancreas rough microsomes; from tissue; host or cells: porcine pancreas rough microsomes (lumenal contents)
T1 sequence (Q29092 22-804): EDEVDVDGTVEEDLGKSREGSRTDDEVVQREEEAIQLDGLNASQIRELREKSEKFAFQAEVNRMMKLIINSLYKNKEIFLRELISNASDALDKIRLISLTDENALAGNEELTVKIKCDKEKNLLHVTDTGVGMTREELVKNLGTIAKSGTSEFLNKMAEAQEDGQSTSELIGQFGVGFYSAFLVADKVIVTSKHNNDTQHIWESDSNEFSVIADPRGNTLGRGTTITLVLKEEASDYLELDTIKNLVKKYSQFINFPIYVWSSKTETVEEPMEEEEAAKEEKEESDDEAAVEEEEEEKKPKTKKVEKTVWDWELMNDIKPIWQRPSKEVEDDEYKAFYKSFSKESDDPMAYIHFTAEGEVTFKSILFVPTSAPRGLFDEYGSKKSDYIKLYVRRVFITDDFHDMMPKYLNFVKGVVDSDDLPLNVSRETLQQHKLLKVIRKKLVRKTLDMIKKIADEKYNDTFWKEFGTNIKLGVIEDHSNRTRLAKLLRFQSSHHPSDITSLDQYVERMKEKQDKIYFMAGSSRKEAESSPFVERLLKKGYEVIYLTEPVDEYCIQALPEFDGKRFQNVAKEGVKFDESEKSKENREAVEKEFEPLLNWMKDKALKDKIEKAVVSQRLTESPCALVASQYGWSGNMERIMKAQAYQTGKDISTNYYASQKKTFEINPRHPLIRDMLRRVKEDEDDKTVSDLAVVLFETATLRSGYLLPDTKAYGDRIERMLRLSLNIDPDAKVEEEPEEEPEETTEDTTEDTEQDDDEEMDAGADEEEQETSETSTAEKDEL
Described as above. More on the design: species or system porcine. To be noted: 50 μM [32P]ATP, 1 h on ice. As to the method: as §1

Assay [3] has as its target T1, GRP94. As to the kind of experiment: Tryptophan fluorescence (tertiary conformational state). It is filed as biochemical, porcine. To be noted: 50 μM NECA, 50 μM geldanamycin, 2.5 mM ATP or 2.5 mM ADP; 1 h 37° C. Here is the method:
Tryptophan Fluorescence. Tryptophan fluorescence measurements were conducted in a FLUOROMAX™ spectrofluorometer (Spex Industries, Inc. of Edison, N.J.) with the slit widths set to 1 nm for both excitation and emission. […] All spectra were corrected by subtraction of buffer or buffer plus ligand samples. GRP94 (50 μg/ml) was incubated in buffer A supplemented with 10 mM Mg(OAc)2 and the following concentrations of ligands for 1 hour at 37° C. […] Samples were then cooled to room temperature, transferred to a quartz cuvette, and the spectra collected.

Assay [4] concerns the target T1, GRP94. Description: [3H]-NECA competitive displacement assay. It is filed as binding, porcine. Here is the method:
Where indicated, binding reactions were performed in either buffer C (10 mM Tris, pH 7.5, 50 mM KCl, 5 mM MgCl2, 2 mM DTT, 0.01% NP-40, 20 mM Na2MoO4) or 50 mM Tris, pH 7.5, 10 mM Mg(OAc)2. […] Vacuum filtration was performed with an Amersham Pharmacia Biotech (Piscataway, N.J.) vacuum filtration manifold.
All binding reactions were performed in triplicate and corrected by subtraction of background values, determined in binding reactions lacking GRP94.

For assay [5], the target named is HSP90 (Saccharomyces cerevisiae, UniProt P02829). The conditions noted are these: Prodromou et al. (1997); cited from earlier work.
HSP90 (Saccharomyces cerevisiae, UniProt P02829), sequence (P02829 whole entry): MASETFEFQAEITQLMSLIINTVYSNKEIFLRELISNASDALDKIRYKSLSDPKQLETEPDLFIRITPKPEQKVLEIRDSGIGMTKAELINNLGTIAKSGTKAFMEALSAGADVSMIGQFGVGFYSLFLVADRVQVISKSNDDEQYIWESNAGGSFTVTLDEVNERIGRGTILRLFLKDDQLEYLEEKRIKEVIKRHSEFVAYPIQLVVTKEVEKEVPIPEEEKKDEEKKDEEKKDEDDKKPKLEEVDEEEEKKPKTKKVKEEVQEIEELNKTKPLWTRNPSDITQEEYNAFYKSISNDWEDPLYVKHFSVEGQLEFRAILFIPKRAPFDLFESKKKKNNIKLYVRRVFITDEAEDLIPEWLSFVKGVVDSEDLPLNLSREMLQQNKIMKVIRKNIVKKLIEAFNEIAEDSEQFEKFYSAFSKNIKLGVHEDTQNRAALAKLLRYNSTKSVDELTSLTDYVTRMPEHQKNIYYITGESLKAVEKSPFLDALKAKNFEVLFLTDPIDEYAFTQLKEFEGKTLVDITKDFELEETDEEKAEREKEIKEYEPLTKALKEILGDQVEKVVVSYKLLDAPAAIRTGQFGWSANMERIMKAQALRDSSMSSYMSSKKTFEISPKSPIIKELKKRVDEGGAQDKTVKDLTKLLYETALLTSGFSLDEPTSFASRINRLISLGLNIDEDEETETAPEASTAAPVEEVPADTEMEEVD
In assay [6] the target is T1, GRP94. Description: Citrate synthase thermal aggregation assay (chaperone activity). To be noted: 1 μM GRP94 preincubated 2 h with 10 μM bis-ANS; 0.15 μM citrate synthase, 43° C. The assay is classed as biochemical, porcine. Here is the method: Citrate Synthase Aggregation Assays. The effects of GRP94 on the thermal aggregation of citrate synthase were assayed by the methods described by Buchner et al. (1998) Methods Enzymol 290:323-338. Samples containing no protein, or GRP94 (1 μM), were incubated in 40 mM HEPES pH 7.5 for two hours at 37° C. with either 0.2% DMF or 10 µM bis-ANS. The samples were then warmed to 43° C. for five minutes and placed in a spectrofluorometer thermostatted at 43° C. Citrate synthase was then added to 0.15 μM final concentration and the thermal aggregation of the enzyme followed by light scattering. Excitation and emission wavelengths were both 500 nm with 2 nm slit width. The time course of citrate synthase aggregation was followed for 1000 seconds.
To determine if the bis-ANS-dependent conformational changes in GRP94 were of functional significance, the molecular chaperone activities of native, heat shocked and bis-ANS treated GRP94 were evaluated in a thermal aggregation assay, as described by Jakob et al. (1995) J Biol Chem 270:7288-7294 and Buchner et al. (1998) Methods Enzymol 290:323-338. […] Following experimental treatment of the GRP94, reactions were equilibrated at 43° C., citrate synthase then added and aggregation, as represented by light scattering, was measured.

The target of assay [7] is T1, GRP94. Description: Native blue electrophoresis (BN-PAGE) of oligomeric state. The conditions noted are these: ten-fold molar excess of bis-ANS. It is filed as biochemical, porcine. As to the method: Native Blue Electrophoresis. The oligomeric state of GRP94 was assayed by blue native polyacrylamide gel electrophoresis (BN-PAGE) as described by Schagger et al. (1994) Anal Biochem 217:220-230. GRP94 was either heat shocked or exposed to a 10-fold molar excess of bis-ANS for the indicated times. Samples were then dissolved in 15% glycerol and loaded onto 5-18% gradient gels with 0.02% Coomassie Brilliant Blue in the cathode buffer. Gels were run at 4° C., stained with Coomassie Blue, de-stained and dried.

The target in assay [8] is T1, GRP94. Description: Identification of the bis-ANS binding site (photo-crosslinking, Edman sequencing). More on the design: species or system porcine. Here is the method: Identification of the bis-ANS binding site. […] Following photocrosslinking, GRP94-bis-ANS complexes were digested with trypsin for one hour at 37° C.
As described in Materials and Methods, GRP94 was combined with an excess of bis-ANS and photo-crosslinked on ice for 15 minutes. GRP94 was subsequently digested with trypsin, the fluorescent peptides purified by HPLC, and the sequence of the labeled peptides determined by Edman sequencing.

The target of assay [9] is T1, GRP94. Description: Conformational analysis by proteolysis (trypsin, SDS-PAGE). The assay is classed as biochemical, porcine. The conditions noted are these: 5 μM GRP94, 50 μM bis-ANS, 1 h 37° C.; 0.1% trypsin 30 min. Here is the method: Conformational Analysis by Proteolysis. The conformational state of GRP94 was assessed by tryptic digestion of the protein and subsequent SDS-PAGE analysis. […] Samples were then combined with 0.1% trypsin and digested for 30 minutes at 37° C. An equal volume of SDS-PAGE sample buffer was added and the samples were snap frozen in liquid nitrogen. Immediately prior to gel analysis, samples were thawed and boiled for 5 minutes. […] Gels were fixed and stained with Coomassie Blue. For time course experiments, excess free bis-ANS was removed immediately prior to trypsinization by gel filtration on 0.5 ml G-25 SEPHADEX® spin columns.

For assay [10], the target named is T1, GRP94. As to the kind of experiment: Far-UV circular dichroism. The assay is classed as biochemical, porcine. The conditions noted are these: 1 μM GRP94, 10 μM bis-ANS, 2 h. As to the method: Circular Dichroism Measurements. Far-UV CD spectrometry was performed on an AVIV Associates 62DS™ circular dichroism spectrometer (AVIV Associates of Lakewood, N.J.). Samples were analyzed in a 1 mm path length quartz cuvette at 37° C. GRP94 samples (1 μM) were prepared in standard phosphate buffered saline solution as buffer A produced unacceptable dynode voltages in the relevant region of the spectrum. GRP94 was incubated with 10 µM bis-ANS for 2 hours at 37° C. prior to obtaining spectra. Spectra were recorded from 300 to 195 nm. The α-helical content of GRP94 was calculated from the molar ellipticity at 222 nm. See Myers & Jakoby (1975) J Biol Chem 250:3785-3789.
For orientation: Circular dichroism is widely used to follow secondary structure.

Assay [11] concerns the target T1, GRP94. As to the kind of experiment: Fluorophore binding to native and heat shocked GRP94 (fluorescence emission). Also on record: species or system porcine. The source says: Fluorophore Binding Reactions.
Fluorescence Measurements. […] All spectra were background corrected.
To characterize the structural basis for the heat shock dependent activation of GRP94 activity, the interaction of polarity-sensitive fluorophores with native and heat shocked GRP94 was examined. The three probes tested, Prodan (6-propionyl-2-(dimethylamino)naphthalene), 8-ANS (1,8-anilinonaphthalenesulfonate) and bis-ANS (bis(1,8-anilino-naphthalenesulfonate) are structurally related probes that bind to hydrophobic sites on proteins and undergo substantial fluorescence spectrum changes upon introduction into nonpolar environments, as discussed by Rosen & Weber (1969) Biochemistry 8:3915-3920; Weber & Farris (1979) Biochemistry 18:3075-3078; Takashi et al. (1977) Proc Natl Acad Sci USA 74:2334-2338; Shi et al. (1994) Biochemistry 33:7536-7546. The following experimental protocol was utilized. GRP94 was warmed to 37° C. and either maintained at 37° C. or heat shocked for 15 minutes at 50° C., followed by incubation at 37° C. Subsequently, probe stocks were added to the GRP94 stocks and emission spectra recorded after 30 min at 37° C.
Under the experimental conditions used in this series of experiments, bis-ANS binding to GRP94 was near maximal at a 20-fold molar excess of GRP94 monomer over bis-ANS, with half maximal binding observed at 110 nM GRP94 (FIG. 2B).

In assay [12] the target is HSP90 (Homo sapiens, UniProt P07900). As to the kind of experiment: Conformational analysis by proteolysis (trypsin, SDS-PAGE). It is filed as biochemical.

Consider `Nc1ncnc2c1ncn2[C@@H]1O[C@H](COP(=O)(O)OP(=O)(O)OP(=O)(O)O)[C@@H](O)[C@H]1O` [ATP], for which the ATP binding entry in assay [1] is reported as “displayed the expected ATP binding activity”; in [2], “no ATP binding was observed to Hsp90 or GRP94”. In addition, the “change of GRP94 tryptophan fluorescence” value in assay [3] was “the tryptophan fluorescence was decreased”. In assay [4] (20 nM [3H]-NECA), the “molar excess required for 50% inhibition of [3H]-NECA binding” value is given as ~1000 -fold molar excess. For the same compound, the “effect of excess Mg2+ on binding to GRP94” value in assay [4] (10 mM Mg(OAc)2 versus nominal magnesium) is “markedly stimulated the binding of ATP, ADP and AMP”. Moreover, the “nucleoside base specificity: binding to GRP94 by [3H]-NECA displacement” value in assay [4] (competitors at 50 μM) is “GRP94 could bind both ATP and deoxyATP”. Moreover, the “relative affinities for GRP94 in presence of Mg2+” value in assay [4] (excess Mg2+) is listed as “nearly identical relative affinities”. The “efficacy of competing NECA binding, ATP relative to ADP” value in [4] (no excess Mg2+) is recorded as “eight-fold higher efficacy than ADP”. The Kd in [5] was 132 µM.

On to “4,4′-dianilino-1,1-binaphthyl-5,5-disulfonic acid [bis-ANS]”, for which the “thermal aggregation of citrate synthase in presence of treated GRP94” value in assay [6] is listed as “no thermal aggregation of citrate synthase was detectable”. Moreover, in assay [7], the “quaternary structure (oligomerization) of GRP94” value is recorded as “induces changes in the quaternary structure of GRP94 that mimic those seen upon heat shock”. For the same compound, the “site of bis-ANS binding to GRP94 (labeled peptide)” value in assay [8] is recorded as “mapped to residues 271-281 of the N-terminal domain of GRP94”. In addition, the “trypsin proteolysis pattern of GRP94” value in [9] is given as “substantially reduced recovery of the prominent proteolysis products”. Further, in assay [10], the “secondary structure of GRP94 (CD spectra)” value is on record as “does not alter GRP94 secondary structure”. In assay [11], the “agonist activity for GRP94 activation” value was “both an agonist for GRP94 activation as well as an indicator for the relative state of activation”. Further, in assay [11] (0.5 μM GRP94, 5 μM probe, 37° C.), the “fluorophore binding to native versus heat shocked GRP94 (fluorescence emission)” value is “a level of fluorophore binding similar to that seen with heat shocked GRP94 was observed”. The Kd in assay [11] (fixed 50 nM bis-ANS, increasing GRP94, excitation 393 nm, emission 475 nm, read-out: half maximal binding of bis-ANS to heat shocked GRP94 (GRP94 concentration)) amounted to 0.11 µM. The “molar excess of GRP94 monomer over bis-ANS at near maximal binding” value in assay [11] (heat shocked GRP94) is reported as 20 -fold. For the same compound, the “trypsin proteolysis pattern of HSP90” value in assay [12] is reported as “Essentially identical proteolysis patterns were observed following either heat shock or bis-ANS treatment of HSP90”.

The values are drawn from US7691969B2, “Isolated GRP94 ligand binding domain polypeptide and nucleic acid encoding same, crystalline form of same, and screening methods employing same” (Duke University, priority 2001, dated 2010).
